Measured values from PMC7782793, “Hydroxamic acid-modified peptide microarrays for profiling isozyme-selective interactions and inhibition of histone deacetylases” (Nature Communications, 2021).
Values joined by “and” are separate entries in the source; they are usually repeats but may differ in a detail not shown here. Identical values can stand only once. Marks after values point to notes of the source that are not given here. Non-standard residues stand in square brackets, D forms with d. Residues, ends and D or L forms follow the SMILES beside them. *: point of attachment. Asu = N[C@@H](CCCCCC(=O)O)C(=O)O; NHOH = ON*

Key:
[1] = target: T1, HDAC1 (Homo sapiens, UniProt Q13547); assay: Recombinant HDAC µSPOT microarray binding assay;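 note: slides with spotted peptides incubated with six HDAC concentrations in HEPES buffer pH 7.4, spot intensities fitted by four-parameter logistic, EC50 as enzyme concentration giving half-maximal binding signal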
T1 construct: HDAC1 (full length, C-terminal His tag, C-terminal FLAG tag, BPS Bioscience, cat. #: 50051); FLAG (C); purchased BPS Bioscience 50051

[2] = target: T2, HDAC8 (Homo sapiens, UniProt Q9BY41); assay: Recombinant HDAC µSPOT microarray binding assay;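 note: peptide µSPOT slides incubated with varying HDAC enzyme concentrations, imaged signal intensity fitted by four-parameter variable-slope regression, EC50 is enzyme concentration giving half-maximal binding, pH 7.4 HEPES buffer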
T2 construct: HDAC8 (full length, C-terminal His tag, BPS Bioscience, cat. #: 50008); purchased BPS Bioscience 50008
T2 sequence (Q9BY41 1-377): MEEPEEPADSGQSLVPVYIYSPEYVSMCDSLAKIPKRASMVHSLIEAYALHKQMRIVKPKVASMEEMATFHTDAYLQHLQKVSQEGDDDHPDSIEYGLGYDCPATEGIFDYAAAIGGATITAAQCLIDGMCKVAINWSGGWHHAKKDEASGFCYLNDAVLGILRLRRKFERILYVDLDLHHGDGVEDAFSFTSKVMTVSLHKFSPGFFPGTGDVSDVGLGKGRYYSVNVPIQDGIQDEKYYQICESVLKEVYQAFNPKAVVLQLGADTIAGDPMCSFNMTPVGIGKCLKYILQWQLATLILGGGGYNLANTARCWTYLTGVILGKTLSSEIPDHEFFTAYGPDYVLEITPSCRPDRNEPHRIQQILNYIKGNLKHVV

[3] = target: T3, HDAC2 (Homo sapiens, UniProt Q92769); assay: HDAC inhibition assay (fluorogenic, Ac-Leu-Gly-Lys(Ac)-AMC); assay type: biochemical; conditions: for HDAC2 dose-response data (relative enzyme activity), Fig. 6 + S. Fig. 10: duplicate columns
T3 construct: HDAC2 (full length, C-terminal His tag, BPS Bioscience, cat. #: 50002); purchased BPS Bioscience 50002

[4] = target: T4, HDAC3/NCoR2 (Homo sapiens, UniProt O15379); assay: Recombinant HDAC µSPOT microarray binding assay;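 note: peptide spots on cellulose slides incubated with rising HDAC enzyme concentrations, imaged together, four-parameter logistic fit, EC50 is enzyme concentration giving half-maximal binding signal, two experiments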
T4 construct: HDAC3/NCoR2 (full length, C-terminal His tag, NCoR2 N-terminal GST tag); purchased BPS Bioscience 50003

[5] = target: T5, HDAC6 (Homo sapiens, UniProt Q9UBN7); assay: HDAC inhibition assay (fluorogenic, Ac-Leu-Gly-Lys(Ac)-AMC); assay type: biochemical; conditions: HDAC6, replicates
T5 construct: HDAC6 (full length, BPS Bioscience, cat. #: 50056); purchased BPS Bioscience 50056
T5 sequence (Q9UBN7 1-1215): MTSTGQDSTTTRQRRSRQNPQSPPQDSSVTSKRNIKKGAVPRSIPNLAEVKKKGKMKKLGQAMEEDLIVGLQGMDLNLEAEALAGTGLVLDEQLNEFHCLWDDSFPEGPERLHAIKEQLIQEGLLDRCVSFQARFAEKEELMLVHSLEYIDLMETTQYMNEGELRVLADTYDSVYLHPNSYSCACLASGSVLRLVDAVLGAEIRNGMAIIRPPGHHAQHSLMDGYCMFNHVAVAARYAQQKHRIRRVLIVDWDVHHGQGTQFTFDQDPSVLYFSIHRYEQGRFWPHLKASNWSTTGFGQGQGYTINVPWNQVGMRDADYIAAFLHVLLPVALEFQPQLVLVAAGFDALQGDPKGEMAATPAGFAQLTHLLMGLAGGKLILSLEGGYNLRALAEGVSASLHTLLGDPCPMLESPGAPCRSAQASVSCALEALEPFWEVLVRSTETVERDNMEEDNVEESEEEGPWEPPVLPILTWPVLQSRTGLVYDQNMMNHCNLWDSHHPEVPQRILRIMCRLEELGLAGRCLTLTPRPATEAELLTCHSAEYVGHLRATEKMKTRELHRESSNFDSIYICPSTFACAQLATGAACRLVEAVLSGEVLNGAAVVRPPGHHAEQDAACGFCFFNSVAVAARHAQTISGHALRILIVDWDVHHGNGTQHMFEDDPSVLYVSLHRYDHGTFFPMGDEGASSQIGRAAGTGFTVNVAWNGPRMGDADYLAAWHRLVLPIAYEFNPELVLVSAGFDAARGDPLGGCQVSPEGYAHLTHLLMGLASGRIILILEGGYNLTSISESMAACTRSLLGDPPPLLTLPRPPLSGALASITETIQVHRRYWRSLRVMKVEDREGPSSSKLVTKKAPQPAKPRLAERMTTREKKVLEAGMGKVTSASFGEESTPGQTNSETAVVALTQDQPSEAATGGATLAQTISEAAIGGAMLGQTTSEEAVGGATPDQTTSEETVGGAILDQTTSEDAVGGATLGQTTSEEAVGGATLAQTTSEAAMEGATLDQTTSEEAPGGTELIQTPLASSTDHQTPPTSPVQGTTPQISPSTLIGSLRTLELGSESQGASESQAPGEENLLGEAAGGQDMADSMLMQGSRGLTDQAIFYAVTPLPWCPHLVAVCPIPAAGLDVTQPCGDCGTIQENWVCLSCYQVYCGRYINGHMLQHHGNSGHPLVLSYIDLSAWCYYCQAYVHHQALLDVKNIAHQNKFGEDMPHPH

[6] = target: T2, HDAC8; assay: HDAC inhibition assay (fluorogenic, Ac-Leu-Gly-Lys(Tfa)-AMC); assay type: biochemical; conditions: for HDAC8 dose-response data (relative enzyme activity, replicate values), Fig. 6 + S. Fig. 10: two replicate columns per inhibitor

T3 sequence (Q92769 whole entry): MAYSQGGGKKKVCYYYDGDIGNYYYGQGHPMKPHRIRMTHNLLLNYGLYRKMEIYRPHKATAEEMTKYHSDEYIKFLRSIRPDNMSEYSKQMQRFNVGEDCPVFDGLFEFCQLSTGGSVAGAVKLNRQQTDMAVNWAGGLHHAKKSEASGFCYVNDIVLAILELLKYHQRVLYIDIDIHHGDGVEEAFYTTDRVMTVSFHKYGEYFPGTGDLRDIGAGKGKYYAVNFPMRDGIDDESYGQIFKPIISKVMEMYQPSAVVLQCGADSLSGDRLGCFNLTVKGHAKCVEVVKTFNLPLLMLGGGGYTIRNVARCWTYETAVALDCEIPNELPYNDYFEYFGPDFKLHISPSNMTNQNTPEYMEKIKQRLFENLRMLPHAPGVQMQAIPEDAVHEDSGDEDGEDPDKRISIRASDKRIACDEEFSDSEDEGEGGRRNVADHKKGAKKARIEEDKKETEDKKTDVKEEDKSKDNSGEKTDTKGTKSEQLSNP
T4 sequence (O15379 whole entry): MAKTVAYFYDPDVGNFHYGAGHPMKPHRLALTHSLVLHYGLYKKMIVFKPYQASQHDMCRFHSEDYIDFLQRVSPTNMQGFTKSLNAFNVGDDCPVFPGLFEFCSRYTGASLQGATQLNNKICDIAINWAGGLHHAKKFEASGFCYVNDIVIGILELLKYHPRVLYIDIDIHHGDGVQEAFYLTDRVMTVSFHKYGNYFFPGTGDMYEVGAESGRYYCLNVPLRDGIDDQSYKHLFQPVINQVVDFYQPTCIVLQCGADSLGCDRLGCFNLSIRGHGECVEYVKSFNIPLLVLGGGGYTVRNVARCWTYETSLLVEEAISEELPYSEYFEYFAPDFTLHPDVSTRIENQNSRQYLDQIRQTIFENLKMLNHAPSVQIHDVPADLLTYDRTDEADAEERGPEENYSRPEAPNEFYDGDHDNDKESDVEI
T4 sequence (Q9Y618 389-480 partner limits assumed): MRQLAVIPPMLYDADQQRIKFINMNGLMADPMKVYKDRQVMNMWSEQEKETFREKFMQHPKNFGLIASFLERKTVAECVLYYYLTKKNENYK
T1 sequence (Q13547 whole entry): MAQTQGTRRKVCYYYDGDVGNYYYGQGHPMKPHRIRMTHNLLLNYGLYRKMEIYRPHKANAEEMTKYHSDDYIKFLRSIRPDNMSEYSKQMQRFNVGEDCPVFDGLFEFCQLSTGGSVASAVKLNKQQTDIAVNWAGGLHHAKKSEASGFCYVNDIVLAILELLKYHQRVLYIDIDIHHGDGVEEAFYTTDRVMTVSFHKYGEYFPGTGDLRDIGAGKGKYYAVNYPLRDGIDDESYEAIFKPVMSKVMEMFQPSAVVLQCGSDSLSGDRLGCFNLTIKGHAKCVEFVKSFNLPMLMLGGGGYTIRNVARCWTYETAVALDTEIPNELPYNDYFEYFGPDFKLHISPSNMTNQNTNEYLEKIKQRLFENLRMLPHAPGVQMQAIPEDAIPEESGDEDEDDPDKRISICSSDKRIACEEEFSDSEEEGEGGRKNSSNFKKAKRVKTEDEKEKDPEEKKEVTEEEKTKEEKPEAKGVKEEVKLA

CC[C@H](C)[C@H](NC(=O)[C@H](CCC(=O)O)NC(=O)[C@H](CCCNC(=N)N)NC(=O)[C@H](CO)NC(=O)[C@@H](NC(=O)[C@@H](NC(=O)[C@@H](NC(=O)[C@H](CO)NC(=O)[C@H](CCCNC(=N)N)NC(=O)[C@H](CCCCCC(=O)NO)NC(=O)[C@H](CC(N)=O)NC(=O)[C@H](Cc1ccc(O)cc1)NC(=O)[C@H](Cc1c[nH]cn1)NC(C)=O)[C@@H](C)O)[C@@H](C)CC)[C@@H](C)O)C(=O)N[C@@H](CCC(N)=O)C(=O)N[C@H](C(=O)N[C@@H](C)C(=O)N[C@@H](Cc1c[nH]c2ccccc12)C(N)=O)[C@@H](C)O [12a] (Ac-HYN[Asu](NHOH)RSTITSREIQTAW-NH2)
EC50 [1]: > 25.1 nM | EC50 [2]: > 25.1 nM | HDAC2 dose-response data (relative enzyme activity), Fig. 6 + S. Fig. 10 ([3]; log[inhibitor(M)] -5): 3.067 and 2.914 | HDAC2 dose-response data (relative enzyme activity), Fig. 6 + S. Fig. 10 ([3]; log[inhibitor(M)] -5.69897): 11.3787 and 10.2695 | HDAC2 dose-response data (relative enzyme activity), Fig. 6 + S. Fig. 10 ([3]; log[inhibitor(M)] -7.79588): 90.7701 and 92.8679 | HDAC2 dose-response data (relative enzyme activity), Fig. 6 + S. Fig. 10 ([3]; log[inhibitor(M)] -10,5850266520292*, whole line marked with asterisks): 102,18881* and 100,790249* | Ki ([3]; resynthesized peptide in solution, Cheng-Prusoff, n = 2): 23.8 ± 0.1 nM | EC50 [4]: 2.57 nM | residual enzymatic activity relative to control wells ([5]; log[inhibitor(M)] -4.30103): 1.727 and 0.8308 | residual enzymatic activity relative to control wells ([5]; log[inhibitor(M)] -5): 2.004 and 3.233 | residual enzymatic activity relative to control wells ([5]; log[inhibitor(M)] -5.69897): 5.047 and 6.177 | residual enzymatic activity relative to control wells ([5]; log[inhibitor(M)] -6.39794): 15.6412 and 12.824 | residual enzymatic activity relative to control wells ([5]; log[inhibitor(M)] -7.09691): 40.6476 and 34.5345 | residual enzymatic activity relative to control wells ([5]; log[inhibitor(M)] -7.79588): 71.7467 and 73.0064 | residual enzymatic activity relative to control wells ([5]; log[inhibitor(M)] -8.49485): 80.6815 and 89.6415 | residual enzymatic activity relative to control wells ([5]; log[inhibitor(M)] -9.19382): 82.3274 and 88.4313 | residual enzymatic activity relative to control wells ([5]; log[inhibitor(M)] -9.89279): 83.6621 and 89.4789 | residual enzymatic activity relative to control wells ([5]; log[inhibitor(M)] -10.585): 102.86 and 101.255 | Ki [6]: 672 ± 2 nM | HDAC8 dose-response data (relative enzyme activity, replicate values), Fig. 6 + S. Fig. 10 ([6]; Inhibitor conc [M] -8.49485 (log)): 96.596 and 95.5531 | HDAC8 dose-response data (relative enzyme activity, replicate values), Fig. 6 + S. Fig. 10 ([6]; Inhibitor conc [M] -9.19382 (log)): 96.9206 and 97.7957 | HDAC8 dose-response data (relative enzyme activity, replicate values), Fig. 6 + S. Fig. 10 ([6]; Inhibitor conc [M] given as -7.09691 (log)): 89.149 and 90.0695 | HDAC8 dose-response data (relative enzyme activity, replicate values), Fig. 6 + S. Fig. 10 ([6]; Inhibitor conc [M] given as -7.79588 (log)): 96.5655 and 96.7922 | HDAC8 dose-response data (relative enzyme activity, replicate values), Fig. 6 + S. Fig. 10 ([6]; Inhibitor conc [M] given as -9.89279 (log)): 97.4718 and 97.8478 | HDAC8 dose-response data (relative enzyme activity, replicate values), Fig. 6 + S. Fig. 10 ([6]; Inhibitor conc [M] given as -10.585 (log)): 100,321515* and 100,605272* | HDAC8 dose-response data (relative enzyme activity), Fig. 6 + S. Fig. 10 ([6]; Inhibitor conc [M] -4.30103, duplicate columns): 4.131 and 3.99
